Experimental data as given in patent US20240374612A1, “IMIDAZOBENZO[…] TREATMENT OF COGNITIVE AND MOOD SYMPTOMS” (UWM Research Foundation, Inc., priority 2021, published 2024).
“Also recorded” adds a separate entry of the source.

Legend:
[1] = tested on: C57/Bl6 mice subjected to chronic restraint stress (working memory deficit); experiment: Y-maze alternation task after chronic restraint stress (CRS); assay type: in vivo; settings: acute, 30 min before testing, vs CRS vehicle
Protocol: Young Animals and chronic stress procedure: C57/Bl6 mice, males and females at 8 weeks old and are kept in normal housing conditions (12 h light ON cycle starting at 7 am/water and food ad libitum) for one week. During this week, animals are single housed and handled to reduce the anxiety-like response toward the experimenter. To induce a working memory deficit, mice are subjected to a chronic restraint stress protocol (CRS). They are placed in a 50 mL Falcon® tube, twice a day, for 1 hour during their diurnal cycle. The time of occurrence of the stress is randomized every day to avoid predictability. CRS is not applied on testing days. Y-maze test occurs 15 hours minimum after the last stressor.
Protocol: Mice are first habituated to the Y-maze apparatus and distal cues during 2 consecutive days over a 10 min free exploration session (one session per day). The next day, animals perform a training session consisting in seven successive trials separated by a 30 s inter-trial interval (ITI); during this training session, mice are familiarized with the experimental procedure (opening and closing of the doors and confinement into the goal arms). For each trial, mice remain in the start-box for a 30 s ITI. Then, the door is opened and the mouse is allowed to enter freely one of the two goal arms; the chosen arm is closed and the choice is recorded. After a 30 s confinement period into the chosen arm, the mouse is removed and brought back to the start-box for a second trial identical to the first one and this procedure is repeated over the series of trials.
The same general procedure used in the training session is implemented 24 h later, except that the ITI was lengthened to 90 s. For this experiment, animals are acutely injected i.p. with vehicle or drug, 30 minutes before the beginning of the test. To dissociate memory deficits from an eventual progressive loss of motivation to alternate over the series, an 8th trial is added to the series which is separated from the 7th trial by a shorter ITI (5 s). All animals failing to alternate at the 8th trial are excluded. The mean alternation rate is calculated and is expressed in percentage (number of alternation done by the animal/total number of alternation possible×100)±SEM. The percentage of alternation during the entire task is considered as an index of working memory performance (50% of being a random alternation rate). Factorial ANOVA is applied to the data to reveal differences between groups. If the ANOVA is significant for group effect (p<0.05), Scheffe post-hoc analysis are conducted to identify which groups are different from each other.
Drug preparation and administration: All drugs are diluted in a vehicle solution containing 85% H2O, 14% propylene glycol (Sigma Aldrich) and 1% Tween 80 (Sigma Aldrich). Working solutions are prepared at a concentration of 10 mg/mL and administered i.p. adjusted to the body weight of each animal. Doses used are either 1, 5, 10 or 20 mg/kg. For all Y maze experiments, animals are acutely injected i.p. with vehicle or drug, 30 minutes before the beginning of the test.

[2] = tested on: mice (anxiety like behaviors); experiment: Elevated plus maze (EPM); assay type: in vivo; settings: vs vehicle
Protocol: The EPM is commonly used in preclinical rodent models to assess anxiety-like behaviors. Briefly, mice are placed in a cross-shaped maze raised at 55 cm from the floor, with 2 open arms facing each other, and 2 closed arms facing each other. During testing, mice are individually placed in the center of the maze facing an open arm and allowed to explore for 10 minutes. Throughout testing, the exploration of each mouse is recorded using a digital camera mounted on the ceiling. After 10 minutes of exploration, the camera is stopped and the mouse is removed from the maze and returned to its home cage. The videos are analyzed using Ethovision XT14 software. Specific parameters considered are: % time spent in the open arms, calculated using ([(total time spent in open arms)/(total time spent in open arms+total time spent in closed arms)]*100) and the number of open arm entries.

[3] = 3 mg/kg i.p., 30 min before testing

| Structure (SMILES) | reversal of CRS-induced reduction of alternation rate (Y-maze) ([1]; 3 mg/kg i.p.) | reversal of CRS-induced reduction of alternation rate (Y-maze) ([1]; 10 mg/kg i.p.) | reversal of CRS-induced reduction of alternation rate (Y-maze) ([1]; 30 mg/kg i.p.) | other results |
| --- | --- | --- | --- | --- |
| C#Cc1ccc2c(c1)C(c1ccccc1Cl)=N[C@@H](C)c1c(C(=O)NC)ncn1-2 [FR-III-17, (S)-6-(2-chlorophenyl)-8-ethynyl-N,4-dimethyl-4H-benzo[f]imidazo[1,5-a][1,4]diazepine-3-carboxamide] | significantly reversed | – | – | reversal of CRS-induced reduction of alternation rate (Y-maze) ([1]; 0.3 mg/kg i.p.): significantly reversed; reversal of CRS-induced reduction of alternation rate (Y-maze) ([1]; 1 mg/kg i.p.): significantly reversed; % distance traveled in the open arms (EPM) [2, 3]: significantly increase; % entries in the open arms (EPM) [2, 3]: significantly increase; % time in the open arms (EPM) [2, 3]: significantly increase |
| C#Cc1ccc2c(c1)C(c1ccccc1Cl)=N[C@@H](C)c1c(-c3nc(C)no3)ncn1-2 [FR-PM-III-57S, (S)-5-(6-(2-chlorophenyl)-8-ethynyl-4-methyl-4H-benzo[f]imidazo[1,5-a][1,4]diazepin-3-yl)-3-methyl-1,2,4-oxadiazole] | – | significantly reversed; also recorded: significantly improved alternation rate | trend level effect | – |
| Cc1noc(-c2ncn3c2[C@@H](C)N=C(c2ccccc2F)c2cc(Br)ccc2-3)n1 [GL-III-60, (R)-5-(8-Bromo-6˜(2-fluorophenyl)-4-methyl-4H-benzo[f]imidazo[1,5-a][1,4]diazepin-3-yl)-3-methyl-1,2,4-oxadiazole] | – | reversed | reversed | – |
| CCc1noc(-c2ncn3c2[C@@H](C)N=C(c2ccccc2F)c2cc(C4CC4)ccc2-3)n1 [GL-IV-03, (R)-5-(8-Cyclopropyl-6-(2-fluorophenyl)-4-methyl-4H-benzo[f]imidazo[1,5-a][1,4]diazepin-3-yl)-3-ethyl-1,2,4-oxadiazole] | reversed | – | reversed | – |
| C#Cc1ccc2c(c1)C(c1ccccn1)=N[C@@H](C)c1c(C(=O)NC)ncn1-2 [MYM-III-29, (S)-8-ethynyl-N,4-dimethyl-6-(pyridin-2-yl)-4H-benzo[f]imidazo[1,5-a][1,4]diazepine-3-carboxamide] | no significant difference between groups | reversed (p<0.05) | – | distance travelled in the open arms (EPM) ([2]; 10 mg/kg i.p.): increasing distance travelled in the open arms |
| C[C@H]1N=C(c2ccccc2F)c2cc(-c3ccccc3)ccc2-n2cnc(C(=O)N(C)C)c21 [MYM-III-41, (R)-6-(2-fluorophenyl)-N,N,4-trimethyl-8-phenyl-4H-benzo[f]imidazo[1,5-a][1,4]diazepine-3-carboxamide] | – | reversed | – | reversal of CRS-induced reduction of alternation rate (Y-maze) ([1]; 5 mg/kg i.p.): reversed |
| CCc1noc(-c2ncn3c2CN=C(c2ccccc2F)c2cc(C4CC4)ccc2-3)n1 [MYM-III-43, 5-(8-cyclopropyl-6-(2-fluorophenyl)-4H-benzo[f]imidazo[1,5-a][1,4]diazepin-3-yl)-3-ethyl-1,2,4-oxadiazole] | reversed | reversed | reversed | – |
| CC(C)c1noc(-c2ncn3c2[C@@H](C)N=C(c2ccccc2F)c2cc(Cl)ccc2-3)n1 [MYM-IV-46, (R)-5-(8-chloro-6-(2-fluorophenyl)-4-methyl-4H-benzo[f]imidazo[1,5-a][1,4]diazepin-3-yl)-3-isopropyl-1,2,4-oxadiazole] | no significant effect | significantly reversed; also recorded: improved alternation rate | trend level effect | – |
| C[C@H]1N=C(c2ccccc2F)c2cc(Cl)ccc2-n2cnc(-c3nc(C4CC4)no3)c21 [MYM-IV-47, (R)-5-(8-chloro-6-(2-fluorophenyl)-4-methyl-4H-benzo[f]imidazo[1,5-a][1,4]diazepin-3-yl)-3-cyclopropyl-1,2,4-oxadiazole] | no significant effect | significantly reversed | significantly reversed | – |
| C#Cc1ccc2c(c1)C(c1ccccc1F)=N[C@H](C)c1c(-c3nc(C4CC4)no3)ncn1-2 [MYM-V-28, (R)-3-cyclopropyl-5-(8-ethynyl-6-(2-fluorophenyl)-4-methyl-4H-benzo[f]imidazo [1,5-a][1,4]diazepin-3-yl)-1,2,4-oxadiazole] | – | significantly reversed; also recorded: significantly improved alternation rate | significantly reversed; also recorded: significantly improved alternation rate | – |
| C#Cc1ccc2c(c1)C(c1ccccc1Cl)=N[C@H](C)c1c(C(=O)N(C)C)ncn1-2 [PM-II-26, (R)-6-(2-chlorophenyl)-8-ethynyl-N,N,4-trimethyl-4H-benzo[f]imidazo[1,5-a][1,4]diazepine-3-carboxamide] | – | reversed (p<0.001) | a trend was observed; also recorded: reversed (trend: p=0.1) | – |
| C#Cc1ccc2c(c1)C(c1ccccc1Cl)=N[C@H](C)c1c(-c3nc(CC)no3)ncn1-2 [PM-II-84E, (R)-5-(6-(2-chlorophenyl)-8-ethynyl-4-methyl-4H-benzo[f]imidazo[1,5-a][1,4]diazepin-3-yl)-3-ethyl-1,2,4-oxadiazole] | – | – | reversed | time spent in the open arms (EPM) ([2]; 10 mg/kg i.p., 30 min before testing): significant effect; also recorded: increasing time spent in the open arms; distance travelled in the open arms (EPM) ([2]; 10 mg/kg i.p.): trend level effect |
| C#Cc1ccc2c(c1)C(c1ccccc1Cl)=N[C@H](C)c1c(-c3nc(C)no3)ncn1-2 [PM-III-57R, (R)-5-(6-(2-chlorophenyl)-8-ethynyl-4-methyl-4H-benzo[f]imidazo[1,5-a][1,4]diazepin-3-yl)-3-methyl-1,2,4-oxadiazole] | – | significantly reversed; also recorded: significantly improved alternation rate | – | – |
